Data published in patent US8399515B2, “Five and fifteen carbon fatty acids for treating metabolic disorders and as nutritional supplements” (Baylor Research Institute, priority 2003, dated 2013).
Values joined by “and” are separate entries in the source; they are usually repeats but may differ in a detail not shown here. Equal values may be shown once.

Assays:
Type in all cases: cell-based, human
[1] = tested on: fibroblasts from patients with Short-chain acyl-CoA dehydrogenase (SCAD) deficiency; test: Propionylcarnitine from oxidation of odd-carbon fatty acids in SCAD fibroblasts; conditions: SCAD fibroblasts, one line per patient, 72 hours incubation
Method: (§1) Fibroblasts obtained from patients with inherited defects of mitochondrial fat oxidation were cultured in the presence of omega deuterated odd-carbon numbered fatty acids, as described in Roe, C. R., Sweetman, L., Roe, D. S., David, F., Brunengraber, H., “Effective Dietary Treatment of Cardiomyopathy & Rhabdomyolysis in Long-Chain Fat Oxidation Disorders using an Anaplerotic Odd-Chain Triglyceride,” J. Clin. Invest. 110 (2): 259-269 (2002).
(§2) The data in Table 1 represents testing of cultured fibroblasts derived from ten patients afflicted with Very-long-chain acyl-CoA dehydrogenase (VLCAD) deficiency (six patients with the severe cardiac form and four with the non-cardiac milder phenotype), two patients with Mitochondrial Trifunctional Protein (MTP) deficiency, five patients having L-3-hydroxy-acyl-CoA dehydrogenase (LCHAD) deficiency and three patients with Short-chain acyl-CoA dehydrogenase (SCAD) deficiency.

[2] = tested on: fibroblasts from patients with L-3-hydroxy-acyl-CoA dehydrogenase (LCHAD) deficiency; test: Propionylcarnitine from oxidation of odd-carbon fatty acids in LCHAD fibroblasts; conditions: LCHAD fibroblasts, one line per patient, 72 hours incubation
Method: as §1, §2

[3] = tested on: fibroblasts from MCAD heterozygote (carrier); test: Fate of odd-carbon fatty acids in MCAD carrier fibroblasts; parameters: unit not given here
Method: as §1
Fibroblasts from four patients with MCAD deficiency and one heterozygote (carrier) indicate that odd-carbon fatty acids containing more than seven carbons can not be effectively used in that disease. […] That any C3 was produced is presumably due to overlapping

[4] = tested on: MCAD-deficient fibroblasts; test: Fate of odd-carbon fatty acids in MCAD-deficient fibroblasts; parameters: *C3 acylcarnitine / *C5 acylcarnitine / *C7 acylcarnitine / *C9 acylcarnitine / *C11 acylcarnitine / *C13 acylcarnitine / *C15 acylcarnitine: unit not given here; conditions: for *C3 acylcarnitine / *C5 acylcarnitine / *C7 acylcarnitine / *C9 acylcarnitine / *C11 acylcarnitine / *C13 acylcarnitine / *C15 acylcarnitine: MCAD fibroblasts, N 4
Method: as §1
Fibroblasts from four patients with MCAD deficiency and one heterozygote (carrier) indicate that odd-carbon fatty acids containing more than seven carbons can not be effectively used in that disease. […]

[5] = tested on: fibroblasts from patients with inherited defects of mitochondrial fat oxidation; test: Propionylcarnitine production in all fat-oxidation-defective fibroblast cell lines (comparison in words); conditions: all VLCAD, MTP, LCHAD, SCAD cell lines; C5 versus C7; C15 versus C5 or C7
Method: as §1, §2

[6] = tested on: fibroblasts from patients with Very-long-chain acyl-CoA dehydrogenase (VLCAD) deficiency, severe cardiac form; test: Propionylcarnitine from oxidation of odd-carbon fatty acids in VLCAD (cardiac) fibroblasts; conditions: VLCAD cardiac fibroblasts, one line per patient, 72 hours incubation
Method: as §1, §2

[7] = tested on: fibroblasts from patients with Mitochondrial Trifunctional Protein (MTP) deficiency; test: Propionylcarnitine from oxidation of odd-carbon fatty acids in MTP fibroblasts; conditions: MTP fibroblasts, one line per patient, 72 hours incubation
Method: as §1, §2

[8] = tested on: control / normal fibroblasts; test: Fate of odd-carbon fatty acids in control (normal) fibroblasts; parameters: *C3 acylcarnitine / *C5 acylcarnitine / *C7 acylcarnitine / *C9 acylcarnitine / *C11 acylcarnitine / *C13 acylcarnitine / *C15 acylcarnitine: unit not given here
Method: Fibroblasts obtained from patients with inherited defects of mitochondrial fat oxidation were cultured in the presence of omega deuterated odd-carbon numbered fatty acids, as described in Roe, C. R., Sweetman, L., Roe, D. S., David, F., Brunengraber, H., “Effective Dietary Treatment of Cardiomyopathy & Rhabdomyolysis in Long-Chain Fat Oxidation Disorders using an Anaplerotic Odd-Chain Triglyceride,” J. Clin. Invest. 110 (2): 259-269 (2002). […]

[9] = tested on: fibroblasts from patients with VLCAD deficiency, non-cardiac milder phenotype; test: Propionylcarnitine from oxidation of odd-carbon fatty acids in VLCAD (non-cardiac) fibroblasts; conditions: VLCAD non-cardiac fibroblasts, one line per patient, 72 hours incubation
Method: as §1, §2

Structure (SMILES): CCCCCCCCCCCCCCC(=O)O [C15, n-pentadecanoic acid]
- Propionylcarnitine from oxidation of fatty acid [1]: 56.7 nmol/mg Protein/72 hours and 30.3 nmol/mg Protein/72 hours and 37.6 nmol/mg Protein/72 hours
- Propionylcarnitine from oxidation of fatty acid [2]: 34.6 nmol/mg Protein/72 hours and 15.1 nmol/mg Protein/72 hours and 15.9 nmol/mg Protein/72 hours and 6.9 nmol/mg Protein/72 hours and 13.9 nmol/mg Protein/72 hours
- *C3 acylcarnitine [3]: 33.5
- *C5 acylcarnitine [3]: 1.7
- *C7 acylcarnitine [3]: 0.6
- *C9 acylcarnitine [3]: 1.7
- *C11 acylcarnitine [3]: 0.5
- *C13 acylcarnitine [3]: 0.2
- *C15 acylcarnitine [3]: 1.9
- *C3 acylcarnitine ([4]; Maximum): 19.6
- *C5 acylcarnitine ([4]; Maximum): 1.6
- *C7 acylcarnitine ([4]; Maximum): 9.9
- *C9 acylcarnitine ([4]; Maximum): 17.5
- *C11 acylcarnitine ([4]; Maximum): 1.0
- *C13 acylcarnitine ([4]; Maximum): 0.9
- *C15 acylcarnitine ([4]; Maximum): 4.7
- *C3 acylcarnitine ([4]; Mean): 9.8
- *C5 acylcarnitine ([4]; Mean): 1.2
- *C7 acylcarnitine ([4]; Mean): 6.5
- *C9 acylcarnitine ([4]; Mean): 10.9
- *C11 acylcarnitine ([4]; Mean): 0.7
- *C13 acylcarnitine ([4]; Mean): 0.4
- *C15 acylcarnitine ([4]; Mean): 2.6
- *C3 acylcarnitine ([4]; Minimum): 3.1
- *C5 acylcarnitine ([4]; Minimum): 0.5
- *C7 acylcarnitine ([4]; Minimum): 3.5
- *C9 acylcarnitine ([4]; Minimum): 4.3
- *C11 acylcarnitine ([4]; Minimum): 0.3
- *C13 acylcarnitine ([4]; Minimum): 0.0
- *C15 acylcarnitine ([4]; Minimum): 1.0
- Propionylcarnitine from odd carbon precursor ([4]; MCAD-1 fibroblast cell line): 6.9 nmol/mg Protein/72 hours
- Propionylcarnitine from odd carbon precursor ([4]; MCAD-2 fibroblast cell line): 19.6 nmol/mg Protein/72 hours
- Oxidation of the fatty acid in MCAD deficient fibroblasts (in words) ([4]; four MCAD patients' fibroblasts): a block in oxidation at C9 & C7
- Quantity of propionylcarnitine produced, compared with the other odd-carbon fatty acids [5]: less propionylcamitine
- Propionylcarnitine from oxidation of fatty acid [6]: 11.7 nmol/mg Protein/72 hours and 5.3 nmol/mg Protein/72 hours and 21.6 nmol/mg Protein/72 hours and 8.0 nmol/mg Protein/72 hours and 6.6 nmol/mg Protein/72 hours and 9.9 nmol/mg Protein/72 hours
- Propionylcarnitine from oxidation of fatty acid [7]: 31.4 nmol/mg Protein/72 hours and 46.5 nmol/mg Protein/72 hours
- *C3 acylcarnitine ([8]; CONTROL MEAN, N = 4): 46.8
- *C5 acylcarnitine ([8]; CONTROL MEAN, N = 4): 2.8
- *C7 acylcarnitine ([8]; CONTROL MEAN, N = 4): 0.8
- *C9 acylcarnitine ([8]; CONTROL MEAN, N = 4): 2.2
- *C11 acylcarnitine ([8]; CONTROL MEAN, N = 4): 0.9
- *C13 acylcarnitine ([8]; CONTROL MEAN, N = 4): 0.7
- *C15 acylcarnitine ([8]; CONTROL MEAN, N = 4): 3.8
- Propionylcarnitine from odd carbon precursor ([8]; NORMAL fibroblasts): 46.8 nmol/mg Protein/72 hours
- Boosting the production of propionyl-CoA (in words) ([8]; normal cells, compared with C7 or C5): more effective in normal cells
- Propionylcarnitine from oxidation of fatty acid [9]: 16.4 nmol/mg Protein/72 hours and 19.2 nmol/mg Protein/72 hours and 36.0 nmol/mg Protein/72 hours and 11.5 nmol/mg Protein/72 hours
